The record followed here is ChEMBL document CHEMBL4406823 (Eur J Med Chem, 2019).

Assay [1] deals with MDA-MB-231. The assay can be described thus: Antiproliferative activity against human MDA-MB-231 cells assessed as inhibition of cell proliferation incubated for 72 hrs by MTT assay. It counts as functional, cell-based. The following applies: MDA-MB-231, 72 h.
Assay [2] concerns MCF7. As to the kind of experiment: cells. The following applies: Homo sapiens, MCF7, 72 h.
Description: Antiproliferative activity against human MCF7 cells assessed as inhibition of cell proliferation incubated for 72 hrs by MTT assay
In assay [3] the test system is SEM cells. As to the kind of experiment: Antiproliferative activity against human SEM cells assessed as inhibition of cell proliferation incubated for 72 hrs by MTT assay. It counts as functional, cell-based.
The target of assay [4] is T1, Tubulin (Bos taurus) (UniProt Q6B856+Q862L2+Q862F3). As to the kind of experiment: Displacement of [3H]-colchicine from bovine brain tubulin at 5 uM incubated for 1 hr by relative to control.
Assay [5] relates to HeLa. The assay can be described thus: cells. The following applies: Homo sapiens, 72 h.
Description: Antiproliferative activity against human HeLa cells assessed as inhibition of cell proliferation incubated for 72 hrs by MTT assay
Assay [6] deals with Tubulin (Bos taurus, UniProt Q6B856+Q862L2+Q862F3). The assay can be described thus: Inhibition of bovine brain tubulin assembly using GTP as substrate incubated for 20 mins by spectrophotometric method.
The subject of assay [7] is HL-60. The assay can be described thus: Antiproliferative activity against human HL60 cells assessed as inhibition of cell proliferation incubated for 72 hrs by MTT assay. It counts as functional, cell-based. The following applies: HL-60, 72 h.
Assay [8] has as its system HT-29. The assay can be described thus: cells. The following applies: Homo sapiens, HT-29, 72 h.
Description: Antiproliferative activity against human HT-29 cells assessed as inhibition of cell proliferation incubated for 72 hrs by MTT assay
Assay [9] deals with T1, Tubulin (Bos taurus). As to the kind of experiment: Displacement of [3H]-colchicine from bovine brain tubulin at 0.5 uM incubated for 1 hr by relative to control.
For assay [10], the system named is E0771. The assay can be described thus: Antitumour activity against mouse E0771 cells allografted in C57BL/6 mouse assessed as reduction in tumor mass at 30 mg/kg, ip administrated every other day by caliper method. It is filed as functional, organism-based.

The source made the active and inactive calls. No cut-off for these calls is given here.

For `COc1cc(-c2n[nH]cc2-c2ccc3ccccc3c2)cc(OC)c1OC`, the IC50 amounted to 28.4 nM in [1]; 21.4 nM in assay [2]; 3.3 nM in assay [3]; 6.6 nM in [5]; 410 nM in assay [6]; 9.4 nM in assay [7]. Besides, inhibition in assay [8] was half-maximal at 8.1 nM (IC50). Besides, the inhibition came to 91% in assay [4] and 68% in [9].
For `COc1ccc(/C=C\c2cc(OC)c(OC)c(OC)c2)cc1OP(=O)(O)O`, in [10], the inhibition entry is “Active”.
Regarding `COc1cc(-c2n[nH]cc2-c2cc3ccccc3s2)cc(OC)c1OC`, the IC50 is 2.5 nM in [1]; 1.4 nM in assay [2]; 0.5 nM in assay [3]; 1.7 nM in assay [5]; 300 nM in assay [6]; 2.3 nM in [7]. Besides, the concentration for half-maximal inhibition (IC50) in assay [8] was 7.4 nM. Moreover, the inhibition in assay [4] amounted to 93%; in assay [9] it was 69%.
Regarding `COc1ccc(-c2c[nH]nc2-c2cc(OC)c(OC)c(OC)c2)cc1F`, the 50% inhibitory concentration (IC50) in [1] came out at 327 nM; in [2], 805 nM; in assay [3], 2.7 nM; in assay [5], 7.3 nM; in assay [6] it was 420 nM; in assay [7], 5.1 nM. In assay [8], this molecule had an IC50 of 15.8 nM. The inhibition was found to be 93% in [4] and 55% in assay [9].
As to `CCOc1ccc(-c2c[nH]nc2-c2cc(OC)c(OC)c(OC)c2)cc1Cl`, the concentration for half-maximal inhibition (IC50) is 6.9 nM in assay [1]; 4.5 nM in assay [2]; 1.4 nM in assay [3]; 1.6 nM in assay [5]; 390 nM in [6]; 1.5 nM in [7]. Besides, it took 4.2 nM to reach half-maximal inhibition in assay [8] (IC50). For the same molecule, the inhibition in assay [4] was 90%; in assay [9], 62%.
On to `COc1cc(-c2n[nH]cc2-c2ccc(C)cc2)cc(OC)c1OC`, for which the IC50 in assay [1] turned out to be 10.6 nM; in assay [2], 127 nM; in assay [3], 2.6 nM; in [5], 11.1 nM; in [6] it was 370 nM; in [7], 11.9 nM. This molecule gave a half-inhibitory concentration (IC50) in assay [8] of 28.2 nM. Also, the inhibition in assay [4] worked out at 88%.
